Test results: US20250262194A1, “PHARMACEUTICAL FOR TREATING OR PREVENTING CANCER” (CHUGAI SEIYAKU KABUSHIKI KAISHA, priority 2022, published 2025)
Counter-ions that a name gives are not always drawn.

Assays:
[1] = system: KRAS-G12C mutation-positive human cancer cell line MIA PaCa-2; assay: In vivo antitumor activity, MIA PaCa-2 xenograft mice (Example 3); parameters: species or system nude mice; conditions: sodium salt of compound 1 0.25 mg/kg and/or sotorasib 10 mg/kg, orally once a day for 14 days
Experimental: (§8) This evaluation employed xenograft mice in which a KRAS-G12C mutation-positive human cancer cell line MIA PaCa-2 or NCI-H2122 (both, ATCC) was transplanted. The xenograft mice were prepared by subcutaneously transplanting 5×10^6 human cells per mouse to nude mice. After cell transplantation, the mice were grouped (n=8) when a tumor volume reached 200 to 340 mm^3.
The sodium salt of the compound 1 was dissolved in 10% DMSO/10% Cremophor EL/15% HP-β-CD (2-hydroxypropyl-β-cyclodextrin)/15% polyethylene glycol-400/50% injectable distilled water (solvent A) for administration. […] The sodium salt of the compound 1 and the solvent B were administered at 0.25 mg/kg and 20 ml/kg, respectively, to the single-agent administration group of the sodium salt of the compound 1. […] The solvent A and the solvent B were administered at 20 ml/kg and 20 ml/kg, respectively, to a control group. […] After the completion of the administration period, an observation period of 22 days was established.
The tumor volumes of the mice were calculated according to the expression (4) given below.
The body weights of the mice were measured.

[2] = system: KRAS-G12C mutation-positive human cancer cell line NCI-H2122; assay: In vivo antitumor activity, NCI-H2122 xenograft mice (Example 3); parameters: species or system nude mice; conditions: sodium salt of compound 1 0.25 or 0.75 mg/kg and/or adagrasib 100 mg/kg, orally once a day for 21 days
Experimental: as §8
The solvent A and the solvent C were administered at 10 ml/kg and 20 ml/kg, respectively, to a control group.
The tumor volumes of the mice were calculated according to the expression (4) given below. […] The ordinates of graphs (a) and (c) of FIG. 17 depict the tumor volumes (mm^3), and the abscissas thereof depict the number of days after cell transplantation.
The body weights of the mice were measured. […] The ordinates of graphs (b) and (d) of FIG. 17 depict the relative body weight change (%), and the abscissas thereof depict the number of days after cell transplantation.

[3] = system: KRAS mutation-positive human cancer cell line NCI-H441; assay: In vivo antitumor activity, NCI-H441-transplanted models (Example 4); parameters: species or system nude mice; conditions: sodium salt of compound 1 0.0625 mg/kg orally once a day for 10 days and/or bevacizumab 2.5 mg/kg intraperitoneal twice a week
Experimental: (§9) The cells of each line were subcutaneously transplanted at 5×10^6 per mouse to the mice. The mice were grouped (n=5) when a tumor volume reached 200 to 300 mm^3.
Administration to the NCI-H441-transplanted models was performed as described below. […] The solvent A was administered at 20 ml/kg to a control group.

[4] = system: KRAS mutation-positive human cancer cell line OV56; assay: In vivo antitumor activity, OV56-transplanted models (Example 4); parameters: species or system SCID mice; conditions: sodium salt of compound 1 0.25 mg/kg orally once a day for 10 days and/or bevacizumab 2.5 mg/kg intraperitoneal twice a week
Experimental: as §9
Administration to the OV56-transplanted models was performed as described below. […] The solvent A and physiological saline were administered at 20 ml/kg and 10 ml/kg, respectively, to a control group.

[5] = system: KRAS mutation-positive human cancer cell line NCI-H1373; assay: In vivo antitumor activity, NCI-H1373-transplanted models (Example 5); parameters: species or system nude mice; conditions: sodium salt of compound 1 0.25 mg/kg orally once a day and/or TNO155 10 mg/kg orally twice a day, 30 days
Experimental: (§1) Use in combination of the sodium salt of the compound 1 and TNO155 was evaluated for its in vivo antitumor activity using nude mice in which any of KRAS mutation-positive human cancer cell lines NCI-H1373, NCI-H358 and NCI-H441 (all, ATCC) was transplanted. The NCI-H1373 cells, the NCI-H358 cells, and the NCI-H441 cells were subcutaneously transplanted at 5×10^6, 1×10^7, and 5×10^6, respectively, per mouse to the mice. The mice were grouped (n=5) when a tumor volume reached approximately 150 to 300 mm^3.
(§2) The NCI-H1373-, NCI-H358- or NCI-H441-transplanted models received the single-agent administration or combined administration of the sodium salt of the compound 1 and TNO155. The sodium salt of the compound 1 was dissolved in solvent A for administration. TNO155 was diluted with 0.5% Tween 80 and 0.5% methyl cellulose prepared with injectable distilled water (solvent D) for administration.
(§3) Administration to the NCI-H1373-transplanted models was performed as described below. The sodium salt of the compound 1 and the solvent D were administered at 0.25 mg/kg and 10 ml/kg, respectively, to the single-agent administration group of the sodium salt of the compound 1. […]
(§4) The tumor volumes of the mice were calculated according to the expression (4). […]

[6] = system: KRAS mutation-positive human cancer cell line NCI-H358; assay: In vivo antitumor activity, NCI-H358-transplanted models (Example 5); parameters: species or system nude mice; conditions: sodium salt of compound 1 0.25 mg/kg orally once a day and/or TNO155 5 mg/kg orally twice a day, 21 days
Experimental: as §1, §2
as §3, with “NCI-H358-transplanted” for “NCI-H1373-transplanted”, “1. TNO155 and the solvent A were administered at 5 mg/kg and 10 ml/kg, respectively, to the single-agent administration group of TNO155.” for “1.”
as §4

[7] = system: KRAS mutation-positive human cancer cell line NCI-H441; assay: In vivo antitumor activity, NCI-H441-transplanted models (Example 5); parameters: species or system nude mice; conditions: sodium salt of compound 1 0.125 or 0.25 mg/kg orally once a day and/or TNO155 5 or 10 mg/kg orally twice a day, 13 days
Experimental: as §1, §2
Administration to the NCI-H441-transplanted models was performed as described below. The sodium salt of the compound 1 and the solvent D were administered at 0.125 mg/kg or 0.25 mg/kg and 10 ml/kg, respectively, to the single-agent administration group of the sodium salt of the compound 1. […]
as §4

[8] = system: KRAS mutation-positive mouse colon cancer cell line CT26; assay: In vivo antitumor activity, CT26-transplanted models (Example 6); parameters: species or system BALB/C mice; conditions: sodium salt of compound 1 1 mg/kg orally once a day and/or anti-PD-L1 antibody 10 mg/kg intravenous twice a week, 21 days
Experimental: (§5) Use in combination of the sodium salt of the compound 1 and an anti-PD-L1 antibody was evaluated for its in vivo antitumor activity using BALB/C mice in which a KRAS mutation-positive mouse colon cancer cell line CT26 (Crown Bioscience) was transplanted and C57BL/6J mice in which a KRAS mutation-positive mouse lung cancer tissue slice mLU6054 (Crown Bioscience) was transplanted. The CT26 cells and the mLU6054 tissue slice were subcutaneously transplanted at 5×10^5 and a diameter of […], respectively, per mouse to the mice. The mice were grouped (n=8) when a tumor volume reached approximately 60 to 85 mm^3.
(§6) The CT26- or mLU6054-transplanted models received the single-agent administration or combined administration of the sodium salt of the compound 1 and the anti-PD-L1 antibody. The sodium salt of the compound 1 was dissolved in solvent E for administration. The anti-PD-L 1 antibody was diluted with PBS for administration.
(§7) Administration to the CT26- or mLU6054-transplanted models was performed as described below. The sodium salt of the compound 1 and PBS were administered at 1 mg/kg and 10 ml/kg, respectively, to the single-agent administration group of the sodium salt of the compound 1. […]
as §4

[9] = system: KRAS mutation-positive mouse lung cancer tissue slice mLU6054; assay: In vivo antitumor activity, mLU6054-transplanted models (Example 6); parameters: species or system C57BL/6J mice; conditions: sodium salt of compound 1 1 mg/kg orally once a day and/or anti-PD-L1 antibody 10 mg/kg intravenous twice a week, 21 days
Experimental: as §5, §6, §7, §4

[10] = system: phosphorylation of MEK and ERK and binding between KRAS and GTP within human cancer cells (NCI-H2122, NCI-H1373, NCI-H441, HPAC); assay: In vitro RAS signal inhibitory activity evaluation (Western blot); conditions: for attenuation of inhibition of pMEK and pERK by lapse of time (Western blot, FIGS. 2 and 3): cells recovered after 4, 24 or 72 hours, single-agent or combined treatment; for inhibition of pMEK, pERK, DUSP4 and DUSP6 (Western blot, FIGS. 2 and 3): 3, 10 or 30 nmol/L compound 1, 1000 nmol/L TNO155, 100 nmol/L GDC-1971
Experimental: The human cancer cells used were KRAS mutation-positive human lung cancer cell lines NCI-H2122 (KRAS-G12C mutation), NCI-H1373 (KRAS-G12C mutation), NCI-H441 (KRAS-G12V mutation) and HPAC (KRAS-G12D) (all, ATCC). These cells were inoculated to a three-dimensional culture plate PrimeSurface (Sumitomo Bakelite Co., Ltd.) containing a medium. The plate inoculated with the cells was cultured at 37° C. in a 5% carbon dioxide incubator for 24 hours. […] The plate thus subjected to single-agent treatment or combined treatment was cultured at 37° C. in a 5% carbon dioxide incubator. After a lapse of 4 hours, 24 hours or 72 hours, the cells were recovered. The recovered cells were lysed with Cell Lysis Buffer (Cell Signaling Technology, Inc.) containing protease and phosphatase inhibitors (Thermo Fisher Scientific Inc.) to obtain a protein solution.
RAS-GTP, an activated form of RAS, was recovered from a portion of the obtained protein solution using Active Ras Pull-Down and Detection Kit (Thermo Fisher Scientific Inc.). SDS-PAGE was carried out using the obtained RAS-GTP concentrated solution and the protein solution, and migrated proteins were transferred to a PVDF membrane using Trans-Blot Turbo Transfer System (Bio-Rad Laboratories, Inc.). After blocking, the PVDF membrane was reacted with a primary antibody and a secondary antibody in this order. The chemiluminescence of protein bands was caused with Chemi-lumi One Super (Nacalai Tesque, Inc.). The bands were detected with ChemiDoc Touch Imaging System (Bio-Rad Laboratories, Inc.).
“KRAS-GTP” depicts KRAS bound with GTP. “pMEK” and “pERK” depict phosphorylated MEK and ERK, respectively.

Compound | tumor volume compared with the control group (FIG. 17a) [1] | tumor volume compared with the control group (FIG. 17c) [2] | tumor volume compared with the control group (FIG. 18a) [3] | tumor volume compared with the control group (FIG. 18b) [4] | tumor volume compared with the control group (FIG. 19A) [5] | tumor volume compared with the control group (FIG. 19B) [6] | tumor volume compared with the control group (FIG. 19C) [7] | tumor volume compared with the control group (FIG. 20a) [8] | tumor volume compared with the control group (FIG. 20b) [9] | attenuation of inhibition of pMEK and pERK by lapse of time (Western blot, FIGS. 2 and 3) [10] | inhibition of pMEK, pERK, DUSP4 and DUSP6 (Western blot, FIGS. 2 and 3) ([10]; single-agent treatment) | inhibition of pMEK and pERK (Western blot, FIG. 1) ([10]; single-agent treatment, after 4 hours and 24 hours, 300 nmol/L compound 1)
CNS(=O)(=O)[N]([Na+])c1nccc(Cc2cc(C(N)=O)c(Nc3ccc(C4CC4)cc3F)c(F)c2F)c1F [sodium salt of the compound 1] | suppressed increase in tumor volume | suppressed increase in tumor volume | suppressed increase in tumor volume | suppressed increase in tumor volume | suppressed increase in tumor volume | suppressed increase in tumor volume | suppressed increase in tumor volume | suppressed increase in tumor volume | suppressed increase in tumor volume | – | – | –
C[C@@H]1OCC2(CCN(c3cnc(Sc4ccnc(N)c4Cl)c(N)n3)CC2)[C@@H]1N [TNO155, (3S,4S)-8-(6-amino-5-((2-amino-3-chloropyridin-4-yl)thio)pyrazin-2-yl)-3-methyl-2-oxa-8-azaspiro[4.5]decan-4-amine, reference compound] | – | – | – | – | suppressed increase in tumor volume | suppressed increase in tumor volume | suppressed increase in tumor volume | – | – | tended to be attenuated as time passed | inhibited pMEK, pERK, DUSP4 and DUSP6 | –
CNS(=O)(=O)Nc1nccc(Cc2cc(C(N)=O)c(Nc3ccc(C4CC4)cc3F)c(F)c2F)c1F [compound 1, 2-(4-cyclopropyl-2-fluoro-anilino)-3,4-difluoro-5-[[3-fluoro-2-(methylsulfamoylamino)-4-pyridyl]methyl]benzamide] | – | – | – | – | – | – | – | – | – | tended to be attenuated as time passed | inhibited pMEK, pERK, DUSP4 and DUSP6 | inhibited pMEK and pERK
N[C@@H]1c2ccccc2OC12CCN(c1cnc3c(N4CCCc5ncccc54)n[nH]c3n1)CC2 [GDC-1971, (R)-1′-(3-(3,4-dihydro-1,5-naphtyridin-1(2H)-yl)-1H-pyrazolo[3,4-b]pyridin-6-yl)-3H-spiro[benzofuran-2,4′-piperidin]-3-amine] | – | – | – | – | – | – | – | – | – | tended to be attenuated as time passed | inhibited pMEK, pERK, DUSP4 and DUSP6 | –
